The structures appear in SMILES notation. Several values for one entry are separate records, joined by “and”; a condition that tells them apart may be missing. Identical values can stand only once.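 Values below derive from 48-hour exposures of cells grown in 96-well plates, with endpoints linearly interpolated between the two concentrations bracketing the appropriate inhibition level. The concentration for 50% growth inhibition is given as GI50. TGI denotes the concentration required for complete inhibition of growth.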

The test system of the first assay is CCRF-CEM leukemia. Put plainly: inhibition of tumour cell growth, NCI panel, 48 h.
Regarding `COc1cc2nc(N3CCCC3)nc(NCCc3ccccc3)c2cc1OC`, the GI50 was 1.44 µM and the TGI came to 10.6 µM.

As to `COc1cc(C(=O)C/C(CCC(=O)Nc2ccccc2[N+](=O)[O-])=N\NC(N)=O)ccc1O`, the TGI is above 100 µM.

With `COc1ccc(-c2[nH]c3ccccc3c2-c2ccc(OC)cc2)cc1`, the GI50 is 2.85 µM and the TGI is above 100 µM.

Turning to `O=C1c2cccnc2C(=O)c2c1c(C(=O)NCCCN1CCCCC1)c1ccccn21`, the GI50 is 3.26 µM and the TGI was above 100 µM.

The molecule `Cc1ccc2c(C3Cc4ccccc4N3C(=O)/C=C\C(=O)O)c(C)[nH]c2c1` (stereo unspecified) showed a TGI of 62.5 µM.

Turning to `COC(=O)C1CC2CC(=NNC(N)=O)CC2C1` (stereo unspecified), the TGI was above 100 µM.

The molecule `O=C1CC(c2c[nH]c3ccccc23)C(=O)N1` (stereo unspecified) returned a TGI above 100 µM.

With `COc1cc2c(c(OC)c1OC)-c1ccc(SC)c(=O)cc1C(NC(=O)c1ccccc1)CC2` (stereo unspecified), the TGI is above 68.1 µM.

On to `CCOC(=O)C1=C(C)N(c2ccc(Cl)cc2)[C@]2(C#N)C(O)=C(Cl)C(Cl)=C(O)[C@]12C#N`, for which the GI50 is 25.6 µM and the TGI worked out at 75.9 µM.

The test system of another assay is EKVX NSCLC. Put plainly: inhibition of tumour cell growth, NCI panel, 48 h.
As to `COc1cc(N2C(=O)[C@H](O)C2c2ccc(SC)cc2)cc(OC)c1OC` (stereo partly specified), the GI50 is below 0.01 µM and the TGI is above 100 µM.

For the molecule `CCC(=O)C12OC3OC(C)(C)OC3C1OC(C)(C)O2` (stereo unspecified), the TGI was above 100 µM.

As to `O=C1OCC2=C1C(c1ccc(Cl)c(Cl)c1)c1cc3c(cc1N2CCO)OCCO3` (stereo unspecified), the GI50 was 1.23 µM and the TGI is above 38.6 µM.

With `O=C(/C=C/c1cc2ccccc2[nH]c1=O)/C=C/c1cc2ccccc2[nH]c1=O`, the GI50 is 22.5 µM and the TGI is above 100 µM.

Turning to `CC/C=C\C/C=C\C/C=C\CCCCCCCC(=O)OCC(O)CO` (stereo unspecified), the TGI was above 100 µM.

Molecule `Cc1cccc(C)c1NC(=O)/C(=N/NC(N)=S)C(C)C(=O)c1ccc(Cl)cc1` (stereo unspecified) yielded a TGI above 100 µM.

Take `N#CC(C#N)=C1NC(=O)CC(=O)N1`: the TGI was above 100 µM.

On to `Nc1nc(OCc2ccccc2)c2[nH]cnc2n1`, for which the GI50 was 64.1 µM and 32.3 µM; the TGI is 307 µM and 274 µM.

Consider `COc1cc2nc(N3CCCC3)nc(NCCc3ccccc3)c2cc1OC`, for which the GI50 is 1.85 µM and the TGI is 3.9 µM.

`COc1cc(C(=O)C/C(CCC(=O)Nc2ccccc2[N+](=O)[O-])=N\NC(N)=O)ccc1O`: the TGI is above 100 µM.

Take `C1CCC([PH+](C2CCCCC2)C2CCCCC2[PH+](C2CCCCC2)C2CCCCC2)CC1.[Au].[CH-]1CCCCC1CC1CCCC[N-]1` (stereo unspecified): the GI50 was 0.302 µM and the TGI was determined as 1.97 µM.

`COc1ccc(-c2[nH]c3ccccc3c2-c2ccc(OC)cc2)cc1`: the GI50 is 5.05 µM and the TGI was 42.9 µM.

On to `O=C(/C=C\c1cccc([N+](=O)[O-])c1)/C=C/c1cccc([N+](=O)[O-])c1`, for which the GI50 was above 100 µM and the TGI is above 100 µM.

With `O=C1c2cccnc2C(=O)c2c1c(C(=O)NCCCN1CCCCC1)c1ccccn21`, the GI50 is 1.37 µM and the TGI amounted to 3.2 µM.

In turn, `Cc1ccc2c(C3Cc4ccccc4N3C(=O)/C=C\C(=O)O)c(C)[nH]c2c1` (stereo unspecified) came in with a TGI above 100 µM.

For `O=C(Nc1ccc(OCc2nnc(-c3ccc(Cl)cc3)o2)c(F)c1)Nc1ccc(Cl)c(C(F)(F)F)c1`, the GI50 was 2.64 µM and the TGI amounted to 10.4 µM.

For the molecule `COC(=O)C1CC2CC(=NNC(N)=O)CC2C1` (stereo unspecified), the TGI is above 100 µM.

In turn, `O=C1CC(c2c[nH]c3ccccc23)C(=O)N1` (stereo unspecified) came in with a TGI above 100 µM.

In the case of `COc1cc2c(c(OC)c1OC)-c1ccc(SC)c(=O)cc1C(NC(=O)c1ccccc1)CC2` (stereo unspecified), the TGI is above 100 µM.

Take `CCOC(=O)C1=C(C)N(c2ccc(Cl)cc2)[C@]2(C#N)C(O)=C(Cl)C(Cl)=C(O)[C@]12C#N`: the GI50 was 6.24 µM and the TGI was found to be 43.2 µM.

For a further assay, the system named is HCC-2998 colon. The assay can be described thus: inhibition of tumour cell growth, NCI panel, 48 h.
With `COc1cc(N2C(=O)[C@H](O)C2c2ccc(SC)cc2)cc(OC)c1OC` (stereo partly specified), the GI50 is 23.8 nM and the TGI came to 65.3 µM.

`CCC(=O)C12OC3OC(C)(C)OC3C1OC(C)(C)O2` (stereo unspecified) came in with a TGI above 100 µM.

As for `O=C1OCC2=C1C(c1ccc(Cl)c(Cl)c1)c1cc3c(cc1N2CCO)OCCO3` (stereo unspecified), the GI50 is 503 nM and the TGI was 4.33 µM.

Turning to `O=C(/C=C/c1cc2ccccc2[nH]c1=O)/C=C/c1cc2ccccc2[nH]c1=O`, the GI50 was 5280 nM and the TGI amounted to 9.01 µM.

The molecule `CC/C=C\C/C=C\C/C=C\CCCCCCCC(=O)OCC(O)CO` (stereo unspecified) gave a TGI above 100 µM.

With `Cc1cccc(C)c1NC(=O)/C(=N/NC(N)=S)C(C)C(=O)c1ccc(Cl)cc1` (stereo unspecified), the TGI is above 100 µM.

The molecule `N#CC(C#N)=C1NC(=O)CC(=O)N1` gave a TGI above 100 µM.

With `Nc1nc(OCc2ccccc2)c2[nH]cnc2n1`, the GI50 was 46200 nM and 56000 nM; the TGI is 400 µM and 182 µM.

Regarding `COc1cc2nc(N3CCCC3)nc(NCCc3ccccc3)c2cc1OC`, the GI50 was 1960 nM and the TGI was determined as 3.64 µM.

For `COc1cc(C(=O)C/C(CCC(=O)Nc2ccccc2[N+](=O)[O-])=N\NC(N)=O)ccc1O`, the TGI is above 100 µM.

In the case of `C1CCC([PH+](C2CCCCC2)C2CCCCC2[PH+](C2CCCCC2)C2CCCCC2)CC1.[Au].[CH-]1CCCCC1CC1CCCC[N-]1` (stereo unspecified), the GI50 was 404 nM and the TGI is 1.49 µM.

In the case of `COc1ccc(-c2[nH]c3ccccc3c2-c2ccc(OC)cc2)cc1`, the GI50 is 6110 nM and the TGI came to 21.1 µM.

As for `O=C(/C=C\c1cccc([N+](=O)[O-])c1)/C=C/c1cccc([N+](=O)[O-])c1`, the GI50 was 2600 nM and the TGI came to 6.9 µM.

Regarding `O=C1c2cccnc2C(=O)c2c1c(C(=O)NCCCN1CCCCC1)c1ccccn21`, the GI50 is 529 nM and the TGI amounted to 2.04 µM.

Molecule `Cc1ccc2c(C3Cc4ccccc4N3C(=O)/C=C\C(=O)O)c(C)[nH]c2c1` (stereo unspecified) showed a TGI above 100 µM.

For the molecule `O=C(Nc1ccc(OCc2nnc(-c3ccc(Cl)cc3)o2)c(F)c1)Nc1ccc(Cl)c(C(F)(F)F)c1`, the GI50 was 3010 nM and the TGI was 7.98 µM.

`COC(=O)C1CC2CC(=NNC(N)=O)CC2C1` (stereo unspecified) had a TGI above 100 µM.

(Values after PubChem BioAssay (NCI).)
